From DBAASP
In brackets after ≈: the same amount, converted by molar mass. Several values for one entry are separate records, joined by “and”; a condition that tells them apart may be missing. Equal entries are not always repeated.

Columns and labels:
Assay in all cases: ≥ marks a high value that may be exact or a test limit, other limits are often not marked, values filed in µg/mL are converted to µM
[1] = test system: Fusarium solani MTCC 10158
[2] = test system: Escherichia coli SBS 363
[3] = test system: Micrococcus luteus A270
[4] = test system: Candida albicans MDM8
[5] = test system: Candida albicans
[6] = test system: Serratia marcescens
[7] = test system: Bacillus subtilis KCTC 1021
[8] = test system: Shigella dysenteriae ATCC 9752
[9] = test system: Micrococcus luteus ATCC 4698
[10] = test system: Pseudomonas aeruginosa ATCC 9027
[11] = test system: Escherichia coli
[12] = test system: Pseudomonas putida
[13] = test system: Salmonella enterica subsp. enterica serovar Typhimurium ATCC 14028
[14] = test system: Staphylococcus epidermidis ATCC 12228
[15] = test system: Saccharomyces cerevisiae
[16] = test system: Proteus mirabilis ATCC 25933
[17] = test system: Klebsiella pneumoniae ATCC 10031
[18] = test system: Aeromonas hydrophila
[19] = test system: Vibrio fluvialis
[20] = test system: Staphylococcus aureus
[21] = test system: Streptococcus pyogenes
[22] = test system: Vibrio alginolyticus
[23] = test system: Vibrio parahaemolyticus
[24] = test system: Klebsiella aerogenes ATCC 35029
[25] = test system: Staphylococcus aureus ATCC 6538P
[26] = test system: Enterobacter cloacae ATCC 49141
[27] = test system: Pseudomonas aeruginosa ATCC 27853
[28] = test system: Bacillus megaterium Bm11
[29] = test system: Streptococcus pyogenes ATCC 49399
[30] = test system: Enterococcus faecalis ATCC 19433
[31] = test system: Escherichia coli ATCC 25922
[32] = test system: Candida parapsilosis CBS 604
[33] = test system: Candida krusei CBS 573
[34] = test system: Candida albicans ATCC 10231
[35] = test system: Saccharomyces cerevisiae SZMC 0644
[36] = test system: Aggregatibacter actinomycetemcomitans ATCC 29522
[37] = test system: Streptococcus sanguinis ATCC 10556
[38] = test system: Staphylococcus aureus ATCC 25923

Compound: NCCCC[C@H](NC(=O)[C@H](CCCCN)NC(=O)[C@H](CCCN=C(N)N)NC(=O)[C@H](CCCN=C(N)N)NC(=O)[C@H](CCCN=C(N)N)NC(=O)[C@H](CCCN=C(N)N)NC(=O)[C@H](CCC(N)=O)NC(=O)[C@H](CCCN=C(N)N)NC(=O)[C@H](CCCN=C(N)N)NC(=O)[C@H](CCCCN)NC(=O)[C@H](CCCCN)NC(=O)[C@@H](N)CCCN=C(N)N)C(=O)N[C@@H](CCCN=C(N)N)C(=O)N[C@@H](CCCN=C(N)N)C(=O)N[C@@H](CCC(N)=O)C(=O)N[C@@H](CCCN=C(N)N)C(=O)N[C@@H](CCCN=C(N)N)C(=O)N[C@@H](CCCN=C(N)N)C(=O)O [RKKRRQRRRRKKRRQRRR]
- MIC [1]: 7.07 µM and 21.2 µM

Compound: CC[C@H](C)[C@H](NC(=O)[C@H](CC(C)C)NC(=O)[C@@H]1CCCN1C(=O)[C@H](CC(C)C)NC(=O)[C@H](CC(C)C)NC(=O)[C@@H](N)CO)C(=O)N[C@@H](CCCN=C(N)N)C(=O)N[C@@H](CCCCN)C(=O)N[C@@H](CC(C)C)C(=O)N[C@H](C(=O)N[C@H](C(N)=O)[C@@H](C)O)[C@@H](C)CC [SLLPLIRKLIT]
- MIC [2]: 3.12 µM (≈ 3.95 µg/mL)
- MIC [3]: 1.56 µM (≈ 1.97 µg/mL)
- MIC [4]: 1.56 µM (≈ 1.97 µg/mL)

Compound: CC[C@H](C)[C@@H]1NC(=O)[C@H](C)NC(=O)[C@@H](NC(=O)[C@H](Cc2ccccc2)NC(=O)[C@@H](NC(=O)[C@H](CO)NC(=O)[C@@H]2CCCN2C(=O)[C@H](CC(C)C)NC(=O)[C@@H](NC(=O)[C@H](CCCCN)NC(=O)[C@H](CO)NC(=O)[C@H](C)NC(=O)[C@@H](NC(=O)[C@H](CCCCN)NC(=O)[C@H](Cc2ccccc2)NC(=O)[C@H](CC(C)C)NC(=O)[C@H](C)NC(=O)CNC(=O)[C@H](CC(C)C)NC(=O)[C@@H](N)Cc2ccccc2)C(C)C)C(C)C)C(C)C)CSSC[C@@H](C(=O)O)NC(=O)[C@H](CCCCN)NC(=O)[C@H](CCCCN)NC(=O)[C@H]([C@@H](C)O)NC1=O [FLGALFKVASKVLPSVFCAITKKC]
- MIC [5]: 19.4 µM (≈ 50 µg/mL)
- MIC [6]: ≥ 77.8 µM
- MIC [7]: 3.89 µM (≈ 9.99 µg/mL)
- MIC [8]: 19.4 µM (≈ 50 µg/mL)
- MIC [9]: 0.972 µM (≈ 2.5 µg/mL)
- MIC [10]: 38.9 µM (≈ 99.9 µg/mL)
- MIC [11]: 19.4 µM (≈ 50 µg/mL)
- MIC [12]: 19.4 µM (≈ 50 µg/mL)
- MIC [13]: 77.8 µM (≈ 200 µg/mL)
- MIC [14]: 3.89 µM (≈ 9.99 µg/mL)
- MIC [15]: 19.4 µM (≈ 50 µg/mL)
- MIC [16]: ≥ 77.8 µM
- MIC [17]: 19.4 µM (≈ 50 µg/mL)

Compound: CC[C@H](C)[C@H](NC(=O)[C@H](C)NC(=O)[C@H](CC(=O)O)NC(=O)[C@H](CCCN=C(N)N)NC(=O)[C@@H](NC(=O)[C@@H](N)CCCN=C(N)N)[C@@H](C)CC)C(=O)N[C@@H](C)C(=O)N[C@@H](Cc1cnc[nH]1)C(=O)NCC(=O)N[C@@H](Cc1ccc(O)cc1)C(=O)N[C@H](C(=O)N[C@H](C(=O)N[C@@H](CC(=O)O)C(=O)N[C@@H](CCCCN)C(=O)N[C@H](C(=O)O)C(C)C)C(C)C)[C@@H](C)CC [RIRDAIAHGYIVDKV]
- MIC [18]: 18.1 µM (≈ 31.3 µg/mL)
- MIC [19]: ≥ 72.4 µM
- MIC [20]: > 145 µM
- MIC [21]: ≥ 72.4 µM
- MIC [11]: > 145 µM
- MIC [22]: 18.1 µM (≈ 31.3 µg/mL)
- MIC [23]: ≥ 145 µM

Compound: CC[C@H](C)[C@H](NC(=O)[C@H](CCCN=C(N)N)NC(=O)[C@@H](NC(=O)[C@H](CCCN=C(N)N)NC(=O)[C@H](Cc1c[nH]c2ccccc12)NC(=O)[C@H](CCCN=C(N)N)NC(=O)[C@H](Cc1ccccc1)NC(=O)[C@H](CCCN=C(N)N)NC(=O)[C@@H]1CCCN1)[C@@H](C)CC)C(N)=O [PRFRWRIRI]
- MIC [24]: ≥ 80 µM
- MIC [25]: ≥ 80 µM
- MIC [26]: ≥ 80 µM
- MIC [27]: 20 µM (≈ 26 µg/mL)
- MIC [28]: 2.5 µM (≈ 3.25 µg/mL)
- MIC [29]: 2.5 µM (≈ 3.25 µg/mL)
- MIC [30]: ≥ 80 µM
- MIC [31]: 3.54 µM (≈ 4.59 µg/mL)

Compound: CC[C@H](C)[C@H](N)C(=O)N[C@@H](C)C(=O)NCC(=O)N[C@@H](C)C(=O)N[C@@H](Cc1cnc[nH]1)C(=O)N[C@@H](CCCCN)C(=O)N[C@H]1CSSC[C@@H](C(=O)N[C@@H](CC(N)=O)C(=O)N[C@@H](CO)C(=O)N2CCC[C@H]2C(=O)N[C@@H](CC(N)=O)C(=O)O)NC(=O)[C@@H]2CSSC[C@H](NC(=O)[C@@H]3CCCN3C(=O)[C@H](CCCCN)NC1=O)C(=O)N[C@@H](Cc1ccc(O)cc1)C(=O)NCC(=O)N[C@@H](Cc1ccc(O)cc1)C(=O)N[C@@H](CCCCN)C(=O)N[C@@H]([C@@H](C)O)C(=O)N[C@@H](CC(N)=O)C(=O)N[C@@H](CO)C(=O)N2 [IAGAHKCKPCYGYKTNSCCNSPN]
- MIC [32]: 20.3 µM (≈ 49.9 µg/mL)
- MIC [33]: 20.3 µM (≈ 49.9 µg/mL)
- MIC [34]: 20.3 µM (≈ 49.9 µg/mL)
- MIC [35]: 20.3 µM (≈ 49.9 µg/mL)

Compound: CC[C@H](C)[C@H](NC(C)=O)C(=O)N[C@@H](Cc1c[nH]c2ccccc12)C(=O)N[C@@H](CC(C)C)C(=O)N[C@H](C(=O)N[C@@H](C)C(=O)N[C@@H](CC(C)C)C(=O)N[C@@H](CCCCN)C(=O)N[C@@H](Cc1ccccc1)C(=O)N[C@@H](CC(C)C)C(=O)NCC(=O)N[C@@H](CCCCN)C(=O)N[C@@H](CC(N)=O)C(=O)N[C@@H](CC(C)C)C(=O)NCC(=O)N[C@@H](CCCCN)C(=O)N[C@@H](CC(C)C)C(=O)N[C@@H](C)C(=O)N[C@@H](CCCCN)C(=O)N[C@@H](CCC(N)=O)C(=O)N[C@@H](CCC(N)=O)C(=O)N[C@@H](CC(C)C)C(=O)N[C@@H](C)C(=O)N[C@@H](CCCCN)C(=O)N[C@@H](CC(C)C)C(N)=O)[C@@H](C)O [IWLTALKFLGKNLGKLAKQQLAKL]
- MIC [36]: 11.4 µM (≈ 31.2 µg/mL)
- MIC [37]: 5.7 µM (≈ 15.6 µg/mL)
- MIC [38]: 2.85 µM (≈ 7.8 µg/mL)
- MIC [31]: 0.71 µM (≈ 1.94 µg/mL)
